Here are results for five compounds from PMC3426363 (Pharmaceutical research, 2011).

Series [1] has as its target T1, UGT1A1 (Homo sapiens, UniProt P22309).
T1 sequence (P22309 26-533): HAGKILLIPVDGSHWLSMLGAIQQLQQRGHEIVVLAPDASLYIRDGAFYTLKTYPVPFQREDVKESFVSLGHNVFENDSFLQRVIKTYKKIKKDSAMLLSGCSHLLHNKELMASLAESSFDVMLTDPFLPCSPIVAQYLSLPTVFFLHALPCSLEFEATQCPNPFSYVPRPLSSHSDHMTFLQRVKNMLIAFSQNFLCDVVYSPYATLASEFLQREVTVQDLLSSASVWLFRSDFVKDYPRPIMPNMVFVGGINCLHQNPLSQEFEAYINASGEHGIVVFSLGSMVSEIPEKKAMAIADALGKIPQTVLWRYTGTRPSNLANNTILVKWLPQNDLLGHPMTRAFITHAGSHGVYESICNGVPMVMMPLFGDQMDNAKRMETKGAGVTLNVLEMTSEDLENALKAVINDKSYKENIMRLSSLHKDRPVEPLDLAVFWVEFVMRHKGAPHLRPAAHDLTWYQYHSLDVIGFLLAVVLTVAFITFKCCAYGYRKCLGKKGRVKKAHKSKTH
The series is described as follows: UGT1A1 glucuronidation kinetics of flavonols. It is filed as in vitro ADME. The following applies: for Ks: substrate inhibition constant.

For series [2], the target named is T2, UGT1A3 (Homo sapiens, UniProt P35503).
T2 sequence (P35503 29-534): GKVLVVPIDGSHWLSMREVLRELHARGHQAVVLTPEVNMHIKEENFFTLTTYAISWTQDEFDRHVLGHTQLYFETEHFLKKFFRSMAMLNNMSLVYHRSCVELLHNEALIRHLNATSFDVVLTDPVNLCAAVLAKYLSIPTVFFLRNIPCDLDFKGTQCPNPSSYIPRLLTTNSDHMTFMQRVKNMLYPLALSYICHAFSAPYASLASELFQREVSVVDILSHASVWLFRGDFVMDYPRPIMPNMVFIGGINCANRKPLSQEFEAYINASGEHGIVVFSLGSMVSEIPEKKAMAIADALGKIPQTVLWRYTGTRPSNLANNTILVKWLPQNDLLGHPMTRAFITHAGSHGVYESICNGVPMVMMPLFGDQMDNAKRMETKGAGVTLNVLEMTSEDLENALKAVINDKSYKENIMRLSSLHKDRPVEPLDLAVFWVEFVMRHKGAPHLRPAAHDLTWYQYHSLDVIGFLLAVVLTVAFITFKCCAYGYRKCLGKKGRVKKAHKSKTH
Briefly: UGT1A3 glucuronidation kinetics of flavonols. It is filed as in vitro ADME. The conditions noted are these: substrate inhibition constant.

The next series has as its target T3, UGT1A7 (Homo sapiens, UniProt Q9HAW7).
T3 sequence (Q9HAW7 26-530): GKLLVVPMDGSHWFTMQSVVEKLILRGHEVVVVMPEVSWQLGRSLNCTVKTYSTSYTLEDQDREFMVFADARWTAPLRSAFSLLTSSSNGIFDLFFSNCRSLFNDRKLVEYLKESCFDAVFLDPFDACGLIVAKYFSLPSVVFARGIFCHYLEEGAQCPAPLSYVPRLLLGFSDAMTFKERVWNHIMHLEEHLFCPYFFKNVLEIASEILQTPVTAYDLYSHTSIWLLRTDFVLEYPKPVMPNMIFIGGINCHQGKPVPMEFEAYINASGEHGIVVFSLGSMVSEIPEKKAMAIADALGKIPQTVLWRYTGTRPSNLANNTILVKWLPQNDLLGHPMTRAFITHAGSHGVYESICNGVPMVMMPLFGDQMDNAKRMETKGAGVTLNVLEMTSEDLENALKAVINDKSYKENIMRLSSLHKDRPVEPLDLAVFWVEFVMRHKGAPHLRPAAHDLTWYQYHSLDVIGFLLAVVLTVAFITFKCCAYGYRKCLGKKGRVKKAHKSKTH
The series is described as follows: UGT1A7 glucuronidation kinetics of flavonols. It counts as in vitro ADME. The following applies: formation of 3-O-glucuronide, substrate inhibition constant.

For series [3], the target named is T4, UGT1A9 (Homo sapiens, UniProt O60656).
T4 sequence (O60656 26-530): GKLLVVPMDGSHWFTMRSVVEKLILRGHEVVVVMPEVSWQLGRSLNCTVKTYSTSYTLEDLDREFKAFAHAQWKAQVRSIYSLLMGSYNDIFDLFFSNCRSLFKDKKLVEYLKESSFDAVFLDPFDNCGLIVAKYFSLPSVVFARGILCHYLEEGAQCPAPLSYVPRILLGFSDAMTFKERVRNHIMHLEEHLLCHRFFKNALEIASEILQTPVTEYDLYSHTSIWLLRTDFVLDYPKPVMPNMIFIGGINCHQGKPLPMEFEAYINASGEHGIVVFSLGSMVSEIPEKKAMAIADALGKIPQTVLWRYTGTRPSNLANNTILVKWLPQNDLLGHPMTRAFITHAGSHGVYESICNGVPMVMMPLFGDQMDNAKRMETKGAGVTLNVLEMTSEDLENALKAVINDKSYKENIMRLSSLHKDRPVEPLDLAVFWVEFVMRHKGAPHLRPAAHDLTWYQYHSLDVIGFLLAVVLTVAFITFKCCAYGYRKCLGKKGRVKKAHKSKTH
Briefly: UGT1A9 glucuronidation kinetics of flavonols. The conditions noted are these: for Ks: substrate inhibition constant. It is filed as in vitro ADME.

Series [4] has as its target T2, UGT1A3. The conditions noted are these: published observation; cited from earlier work.
Series [5] has as its target T1, UGT1A1. The series is described as follows: Inhibition of UGT1A1-mediated glucuronidation of 3-hydroflavone. The following applies: 40 µM inhibitor; data not shown. It is filed as biochemical.
Series [6] has as its target T4, UGT1A9. The following applies: ref 32 (Chen et al.); cited from earlier work.
The target of another series is T5, UGT1A8 (Homo sapiens, UniProt Q9HAW9).
T5 sequence (Q9HAW9 26-530): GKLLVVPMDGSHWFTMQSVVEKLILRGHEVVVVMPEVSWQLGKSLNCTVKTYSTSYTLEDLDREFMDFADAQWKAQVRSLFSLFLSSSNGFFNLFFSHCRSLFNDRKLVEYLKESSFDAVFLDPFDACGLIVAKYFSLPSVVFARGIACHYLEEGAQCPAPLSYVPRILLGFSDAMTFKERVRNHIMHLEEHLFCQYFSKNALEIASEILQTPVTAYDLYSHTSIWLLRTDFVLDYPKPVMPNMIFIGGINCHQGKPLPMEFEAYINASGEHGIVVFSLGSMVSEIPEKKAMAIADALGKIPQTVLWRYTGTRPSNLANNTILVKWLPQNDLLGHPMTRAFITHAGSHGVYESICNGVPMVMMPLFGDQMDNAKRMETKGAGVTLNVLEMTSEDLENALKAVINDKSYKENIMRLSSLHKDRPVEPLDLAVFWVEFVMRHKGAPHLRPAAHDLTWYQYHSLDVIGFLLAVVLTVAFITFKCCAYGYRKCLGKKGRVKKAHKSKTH
Briefly: UGT1A8 glucuronidation kinetics of flavonols. The following applies: formation of 3-O-glucuronide. It counts as in vitro ADME.

The target of a further series is T6, UGT1A10 (Homo sapiens, UniProt Q9HAW8).
T6 sequence (Q9HAW8 26-530): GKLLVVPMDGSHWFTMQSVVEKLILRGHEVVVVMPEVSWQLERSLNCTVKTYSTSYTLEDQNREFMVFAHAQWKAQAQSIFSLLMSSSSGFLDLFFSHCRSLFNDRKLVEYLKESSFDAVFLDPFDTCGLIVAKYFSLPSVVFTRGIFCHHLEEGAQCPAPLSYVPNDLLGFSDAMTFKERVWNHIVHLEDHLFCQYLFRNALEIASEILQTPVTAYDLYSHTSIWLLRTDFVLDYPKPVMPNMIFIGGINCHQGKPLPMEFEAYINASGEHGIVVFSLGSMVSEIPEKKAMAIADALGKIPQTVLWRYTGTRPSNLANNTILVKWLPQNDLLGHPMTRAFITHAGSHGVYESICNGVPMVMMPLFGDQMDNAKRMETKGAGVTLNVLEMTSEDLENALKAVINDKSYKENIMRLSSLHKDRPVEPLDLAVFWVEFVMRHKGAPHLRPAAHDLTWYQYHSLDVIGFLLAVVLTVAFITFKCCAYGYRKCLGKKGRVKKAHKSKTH
The series is described as follows: UGT1A10 glucuronidation kinetics of flavonols. It is filed as in vitro ADME. The following applies: formation of 3-O-glucuronide, substrate inhibition constant.

By Vmax is commonly meant the rate approached at saturating substrate. Turning to `O=c1c(O)c(-c2ccccc2)oc2cc(O)ccc12` [3,7DHF, 3,7-dihydroxyflavone], the Ks/Km ratio at UGT1A1 [1] (3-O-glucuronidation) is 0.38; on UGT1A1 [1] (7-O-glucuronidation) it was 1.16. The Vmax is recorded as 1.02 nmol/mg/min on UGT1A1 [1] (formation of 3-O-glucuronide), 3.04 nmol/mg/min at UGT1A1 [1] (formation of 7-O-glucuronide) and 2.04 nmol/mg/min at UGT1A9 [3] (formation of 7-O-glucuronide). The Ks came to 0.60 ± 0.38 µM on UGT1A1 [1] (formation of 3-O-glucuronide); 1.21 ± 0.23 µM at UGT1A1 [1] (formation of 7-O-glucuronide); 100.05 ± 94.80 µM at UGT1A3 [2] (formation of 3-O-glucuronide); 50.00 ± 80.17 µM at UGT1A3 [2] (formation of 7-O-glucuronide); 309.17 ± 127.39 µM at UGT1A7; 30.13 ± 7.11 µM on UGT1A9 [3] (formation of 3-O-glucuronide).

With `COc1ccc(C2CC(=O)c3c(O)cc(O)cc3O2)cc1O` (stereo not shown) [hesperetin, 4'-methoxy-3',5,7-trihydroxyflavanone], on UGT1A3 [4], the glucuronide generated entry is reported as “only 7-O-glucuronide was generated”.

On to `O=c1c(O)c(-c2ccc(O)cc2)oc2cc(O)ccc12` [3,7,4’THF, 3,7,4’-tryhydroxyflavone], for which the Ks on UGT1A1 [1] (formation of 3-O-glucuronide) came to 5.41 ± 0.93 µM; at UGT1A1 [1] (formation of 7-O-glucuronide), 3.53 ± 0.86 µM. Also, at UGT1A1 [5], the “inhibition of glucuronidation of 3-hydroflavone by UGT1A1” value is listed as “completely inhibited”.

On to `O=c1c(O)c(-c2ccc(O)c(O)c2)oc2cc(O)cc(O)c12` [quercetin, 3,5,7,3’,4’-pentahydroxyflavone], for which, at UGT1A9 [6], the regioselectivity of glucuronidation is 3-O-glucuronidation was most efficient with the highest CLint value.

What is called Km is the concentration of substrate that gives half-maximal velocity. Take `O=c1c(O)c(-c2ccccc2)oc2cc(O)cc(O)c12` [3,5,7THF, 3,5,7-trihydroxyflavone]: the Vmax at UGT1A1 [1] (formation of 3-O-glucuronide) came out at 0.82 nmol/mg/min; on UGT1A1 [1] (formation of 7-O-glucuronide) it was 4.59 nmol/mg/min; on UGT1A8, 3.89 nmol/mg/min; on UGT1A9 [3] (formation of 3-O-glucuronide), 7.41 ± 0.89 nmol/mg/min; on UGT1A9 [3] (formation of 7-O-glucuronide) it was 2.56 ± 0.10 nmol/mg/min. For the same compound, the Ks on UGT1A1 [1] (formation of 3-O-glucuronide) is 2.64 ± 0.89 µM; at UGT1A1 [1] (formation of 7-O-glucuronide) it was 1.22 ± 0.19 µM; at UGT1A3 [2] (formation of 3-O-glucuronide), 17.86 ± 6.33 µM; on UGT1A3 [2] (formation of 7-O-glucuronide), 9.95 ± 9.16 µM; on UGT1A7, 55.75 ± 7.27 µM; at UGT1A8 (substrate inhibition constant), 37.28 ± 10.12 µM. Moreover, the Ks at UGT1A9 [3] (formation of 3-O-glucuronide) is 7.43 ± 2.12 µM; on UGT1A10, 73.48 ± 17.82 µM. Besides, the Km amounted to 680 ± 160 nM on UGT1A9 [3] (formation of 3-O-glucuronide) and 540 ± 80 nM at UGT1A9 [3] (formation of 7-O-glucuronide).
